Assay results taken from PubChem BioAssay AID328 (DTP/NCI, 2004).
“And” between values parts separate entries of the source, which are not always exact repeats. Equal values may be shown once. Toxic doses and inconclusive results are not listed.

System: BDF1 mice, P388 leukemia ip, median survival T/C
Assay: NCI In Vivo Anticancer Drug Screen. Data for tumor model P388 Leukemia (intraperitoneal) in B6D2F1 (BDF1) mice
Settings: endpoint: median survival time, higher = longer survival
Outline: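 T/C = treated-group survival ÷ vehicle-control survival; tumour transplanted into mice before dosing.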

[1] = dose: 12.5 mg/kg/injection, schedule: Q01DX009 (ip), vehicle: Klucel (hydroxypropylcellulose) (HPC)
[2] = dose: 25.0 mg/kg/injection, schedule: Q01DX009 (ip), vehicle: Klucel (hydroxypropylcellulose) (HPC)
[3] = dose: 50.0 mg/kg/injection, schedule: Q01DX009 (ip), vehicle: saline with Tween-80
[4] = dose: 100.0 mg/kg/injection, schedule: Q01DX009 (ip), vehicle: saline with Tween-80
[5] = dose: 200.0 mg/kg/injection, schedule: Q01DX009 (ip), vehicle: saline with Tween-80
[6] = dose: 25.0 mg/kg/injection, schedule: Q01DX005 (ip), vehicle: saline with Tween-80
[7] = dose: 50.0 mg/kg/injection, schedule: Q01DX005 (ip), vehicle: saline with Tween-80
[8] = dose: 100.0 mg/kg/injection, schedule: Q01DX005 (ip), vehicle: saline with Tween-80
[9] = dose: 50.0 mg/kg/injection, schedule: Q04DX003 (ip), vehicle: saline with Tween-80
[10] = dose: 100.0 mg/kg/injection, schedule: Q04DX003 (ip), vehicle: saline with Tween-80
[11] = dose: 200.0 mg/kg/injection, schedule: Q04DX003 (ip), vehicle: saline with Tween-80
[12] = dose: 400.0 mg/kg/injection, schedule: Q01DX009 (ip), vehicle: saline with Tween-80
[13] = dose: 400.0 mg/kg/injection, schedule: Q04DX003 (ip), vehicle: saline with Tween-80
[14] = dose: 50.0 mg/kg/injection, schedule: Q01DX009 (ip), vehicle: saline
[15] = dose: 100.0 mg/kg/injection, schedule: Q01DX009 (ip), vehicle: saline
[16] = dose: 200.0 mg/kg/injection, schedule: Q01DX009 (ip), vehicle: saline

## Cn1c(Cl)nc2c(Cl)nc(Cl)nc21
dose: 1.0 mg/kg/injection, schedule: Q01DX009 (ip), vehicle: Klucel (hydroxypropylcellulose) (HPC)
  T/C: 105 % of control
dose: 2.0 mg/kg/injection, schedule: Q01DX009 (ip), vehicle: Klucel (hydroxypropylcellulose) (HPC)
  T/C: 100 % of control
dose: 4.0 mg/kg/injection, schedule: Q01DX009 (ip), vehicle: Klucel (hydroxypropylcellulose) (HPC)
  T/C: 110 % of control
dose: 8.0 mg/kg/injection, schedule: Q01DX009 (ip), vehicle: Klucel (hydroxypropylcellulose) (HPC)
  T/C: 105 % of control
dose: 16.0 mg/kg/injection, schedule: Q01DX009 (ip), vehicle: Klucel (hydroxypropylcellulose) (HPC)
  T/C: 100 % of control

## Cc1ccc(-c2nc3sccn3c2/C=N/NS(=O)(=O)c2ccc(C)cc2)cc1
dose: 100.0 mg/kg/injection, schedule: Q01DX001 (ip), vehicle: Klucel (hydroxypropylcellulose) (HPC)
  T/C: 101 % of control
dose: 200.0 mg/kg/injection, schedule: Q01DX001 (ip), vehicle: Klucel (hydroxypropylcellulose) (HPC)
  T/C: 101 % of control
dose: 400.0 mg/kg/injection, schedule: Q01DX001 (ip), vehicle: Klucel (hydroxypropylcellulose) (HPC)
  T/C: 101 % of control

## CCCCCSc1nc(N)nc2nc[nH]c12
dose: 100.0 mg/kg/injection, schedule: Q01DX009 (ip), vehicle: Klucel (hydroxypropylcellulose) (HPC)
  T/C: 118 % of control
dose: 100.0 mg/kg/injection, schedule: Q04DX003 (ip), vehicle: other
  T/C: 100 % of control
dose: 200.0 mg/kg/injection, schedule: Q01DX009 (ip), vehicle: Klucel (hydroxypropylcellulose) (HPC)
  T/C: 95 % of control
dose: 200.0 mg/kg/injection, schedule: Q04DX003 (ip), vehicle: other
  T/C: 100 % of control
dose: 400.0 mg/kg/injection, schedule: Q04DX003 (ip), vehicle: other
  T/C: 94 % of control

## C=C=[CH][Sn]([c]1ccccc1)([c]1ccccc1)[c]1ccccc1
dose: 6.25 mg/kg/injection, schedule: Q01DX009 (ip), vehicle: Klucel (hydroxypropylcellulose) (HPC)
  T/C: 92 % of control and 108 % of control
[1]
  T/C: 96 % of control and 104 % of control
[2]
  T/C: 107 % of control and 112 % of control and 115 % of control

## O=C(O)c1cc(S(=O)(=O)F)cc(S(=O)(=O)F)c1
dose: 25.0 mg/kg/injection, schedule: Q01DX009 (ip), vehicle: alcohol
  T/C: 113 % of control
dose: 33.0 mg/kg/injection, schedule: Q01DX009 (ip), vehicle: alcohol
  T/C: 116 % of control
dose: 50.0 mg/kg/injection, schedule: Q01DX009 (ip), vehicle: alcohol
  T/C: 112 % of control

## CCOC(=O)c1c[nH]c2nc(SC)nc(NC(C)=O)c2c1=O
[3]
  T/C: 102 % of control
[4]
  T/C: 87 % of control
[5]
  T/C: 89 % of control

## O=C(c1ccccc1)C1C(c2ccccc2)N1CCl (stereo not drawn)
dose: 100.0 mg/kg/injection, schedule: Q04DX003 (ip), vehicle: Klucel (hydroxypropylcellulose) (HPC)
  T/C: 113 % of control
dose: 200.0 mg/kg/injection, schedule: Q04DX003 (ip), vehicle: Klucel (hydroxypropylcellulose) (HPC)
  T/C: 100 % of control
dose: 400.0 mg/kg/injection, schedule: Q04DX003 (ip), vehicle: Klucel (hydroxypropylcellulose) (HPC)
  T/C: 100 % of control

## N#CCOC(=O)C1(NC(=O)c2ccccc2)CC1c1ccccc1 (stereo not drawn)
[6]
  T/C: 95 % of control
[7]
  T/C: 90 % of control
[8]
  T/C: 92 % of control

## COc1ccc(CN)cc1OC
[3]
  T/C: 100 % of control
[4]
  T/C: 91 % of control
[5]
  T/C: 97 % of control

## CC(=O)c1ccccc1C
[3]
  T/C: 100 % of control
[9]
  T/C: 100 % of control
[4]
  T/C: 109 % of control
[10]
  T/C: 100 % of control
[5]
  T/C: 95 % of control
[11]
  T/C: 100 % of control

## CC(C)=CCC(OC(=O)C=C(C)C)C1=CC(=O)c2c(O)ccc(O)c2C1=O (stereo not drawn)
dose: 1.25 mg/kg/injection, schedule: Q01DX009 (ip), vehicle: carboxymethylcellulose (CMC)
  T/C: 100 % of control
dose: 2.5 mg/kg/injection, schedule: Q01DX009 (ip), vehicle: carboxymethylcellulose (CMC)
  T/C: 95 % of control
dose: 3.12 mg/kg/injection, schedule: Q01DX009 (ip), vehicle: water
  T/C: 118 % of control
dose: 6.25 mg/kg/injection, schedule: Q01DX009 (ip), vehicle: water
  T/C: 113 % of control
dose: 6.25 mg/kg/injection, schedule: Q04DX003 (ip), vehicle: water
  T/C: 122 % of control
dose: 12.5 mg/kg/injection, schedule: Q04DX003 (ip), vehicle: water
  T/C: 122 % of control

## COc1cccc(/C(C)=N\Nc2ccc([N+](=O)[O-])cc2[N+](=O)[O-])c1OC
[3]
  T/C: 94 % of control
[9]
  T/C: 100 % of control
[4]
  T/C: 100 % of control
[10]
  T/C: 102 % of control
[5]
  T/C: 91 % of control
[11]
  T/C: 102 % of control
[12]
  T/C: 94 % of control
[13]
  T/C: 97 % of control

## CCN(CC)c1ccc(N)cc1
dose: 6.25 mg/kg/injection, schedule: Q04DX003 (ip), vehicle: other
  T/C: 100 % of control
dose: 12.5 mg/kg/injection, schedule: Q01DX009 (ip), vehicle: other
  T/C: 100 % of control
dose: 12.5 mg/kg/injection, schedule: Q04DX003 (ip), vehicle: other
  T/C: 115 % of control
dose: 25.0 mg/kg/injection, schedule: Q01DX009 (ip), vehicle: other
  T/C: 120 % of control
dose: 25.0 mg/kg/injection, schedule: Q04DX003 (ip), vehicle: other
  T/C: 110 % of control

## COC(=O)C(N)CCCCNc1ccc2c(cc1=O)C(NC(C)=O)CCc1cc(OC)c(OC)c(OC)c1-2 (stereo not drawn)
dose: 26.0 mg/kg/injection, schedule: Q01DX009 (ip), vehicle: saline with Tween-80
  T/C: 124 % of control
dose: 40.0 mg/kg/injection, schedule: Q01DX009 (ip), vehicle: saline with Tween-80
  T/C: 118 % of control
dose: 60.0 mg/kg/injection, schedule: Q01DX009 (ip), vehicle: saline with Tween-80
  T/C: 119 % of control
dose: 90.0 mg/kg/injection, schedule: Q01DX009 (ip), vehicle: saline with Tween-80
  T/C: 117 % of control
[5]
  T/C: 170 % of control
dose: 300.0 mg/kg/injection, schedule: Q01DX009 (ip), vehicle: saline with Tween-80
  T/C: 159 % of control

## [O-][n+]1onc2ccc(Cl)cc21
[1]
  T/C: 100 % of control
[2]
  T/C: 100 % of control
dose: 37.5 mg/kg/injection, schedule: Q04DX003 (ip), vehicle: Klucel (hydroxypropylcellulose) (HPC)
  T/C: 95 % of control
dose: 50.0 mg/kg/injection, schedule: Q01DX009 (ip), vehicle: Klucel (hydroxypropylcellulose) (HPC)
  T/C: 95 % of control
dose: 75.0 mg/kg/injection, schedule: Q04DX003 (ip), vehicle: Klucel (hydroxypropylcellulose) (HPC)
  T/C: 117 % of control
dose: 150.0 mg/kg/injection, schedule: Q04DX003 (ip), vehicle: Klucel (hydroxypropylcellulose) (HPC)
  T/C: 86 % of control

## C=Cc1ccc(Oc2ccccc2)cc1
dose: 25.0 mg/kg/injection, schedule: Q01DX009 (ip), vehicle: saline
  T/C: 104 % of control
[14]
  T/C: 104 % of control
[15]
  T/C: 109 % of control

## COc1cc(O)c(C(=O)c2ccccc2)cc1S(=O)(=O)O
[15]
  T/C: 110 % of control
dose: 100.0 mg/kg/injection, schedule: Q04DX003 (ip), vehicle: saline
  T/C: 109 % of control
[16]
  T/C: 110 % of control
dose: 200.0 mg/kg/injection, schedule: Q04DX003 (ip), vehicle: saline
  T/C: 100 % of control
dose: 400.0 mg/kg/injection, schedule: Q01DX009 (ip), vehicle: saline
  T/C: 110 % of control
dose: 400.0 mg/kg/injection, schedule: Q04DX003 (ip), vehicle: saline
  T/C: 100 % of control

## CCOC(CNC(=O)NC1CCCCC1)OCC
[10]
  T/C: 90 % of control
[11]
  T/C: 90 % of control
[13]
  T/C: 90 % of control

## Cc1ccccc1N=P(c1ccccc1)(c1ccccc1)c1ccccc1
dose: 50.0 mg/kg/injection, schedule: Q01DX009 (ip), vehicle: gum acacia
  T/C: 88 % of control
dose: 100.0 mg/kg/injection, schedule: Q01DX009 (ip), vehicle: gum acacia
  T/C: 88 % of control
dose: 100.0 mg/kg/injection, schedule: Q04DX003 (ip), vehicle: gum acacia
  T/C: 96 % of control
dose: 200.0 mg/kg/injection, schedule: Q04DX003 (ip), vehicle: gum acacia
  T/C: 96 % of control

## O=S1ON=C(C2CCC(C3=NOS(=O)O3)C2)O1 (stereo not drawn)
[6]
  T/C: 97 % of control
[7]
  T/C: 104 % of control
[8]
  T/C: 114 % of control

## CN(CC[N+]1(C)CCCC1)P(=O)(N1CCCC1)N1CCCC1
[14]
  T/C: 106 % of control
[15]
  T/C: 101 % of control
[16]
  T/C: 109 % of control

## COc1cc(/C=N\Nc2ccccc2[N+](=O)[O-])cc(OC)c1OC
[4]
  T/C: 95 % of control
[5]
  T/C: 104 % of control
[12]
  T/C: 104 % of control
